Data on one molecule can be found in paper PMC7180617, “Biological Evaluation of 3-Benzylidenechromanones and Their Spiropyrazolines-Based Analogues” (Molecules, 2020).

For data set [1], the system named is HL-60 cells. The experiment in a line: MTT cytotoxicity assay, HL-60. Format: cell-based, human. Particulars: Homo sapiens, HL-60, 48 h, MTT, 46 h + 2 h incubation. How it is done:
(§1) The first stage of the study used the MTT viability test to determine the cytotoxicity of ten compounds, i.e., 3-arylidenechromanone, 3-arylideneflavanone, spirochromanone and spiro- flavanone analogues, against four human cancer cell lines: HL-60, NALM-6, WM-115 and COLO-205.
(§2) Cytotoxicity was tested against human skin melanoma cells (WM-115, ECACC, Salisbury, UK), two human leukemia cell lines, viz. promyelocytic leukemia (HL-60) and lymphoblastic leukemia (NALM-6), and human colon adenocarcinoma cells (COLO-205). The cell lines COLO-205, WM-115 and HL-60 used in this work came from the ATCC American Type Culture Collection (Manassas, VA, USA), whereas the NALM-6 cell line was purchased from the German Collection of Microorganisms and Cell Cultures (Braunschweig, Germany). The leukaemia cells and colon adenocarcinoma were cultured in RPMI 1640 medium (Invitrogen, Grand Island, NY, USA) supplemented with 10% fetal bovine serum (FBS; Invitrogen) and gentamicin (25 µg/mL; KRKA, Novo Mesto, Slovenia). For melanoma WM-115 cells, Dulbecco’s minimal essential medium (DMEM; Invitrogen) was used. All cell lines were cultured at 37 °C in a humidified atmosphere of 5% CO2 in air.
(§3) For all experiments, the studied compounds were dissolved in DMSO (Sigma-Aldrich) and were further diluted in culture medium to obtain <0.1% DMSO concentration. In each experiment, controls with and without 0.1% DMSO were performed. The cytotoxicity of all compounds and of the reference compounds 4-chromanone and 3-benzylideneflavanone was determined by the MTT assay, i.e., 3-(4,5-dimethylthiazol-2-yl)-2,5-diphenyltetrazolium bromide (Sigma, St. Louis, MO, USA), which measures cellular dehydrogenase activity. Exponentially growing cells were seeded a day before the experiment onto a 96-well microplates (Nunc, Roskilde, Denmark) at a density up to 6–8 × 10^3 cells/well (depending on the cell line). Subsequently, various concentrations of the studied compounds freshly prepared in DMSO and diluted with complete culture medium were added. All compounds were tested for their cytotoxicity at a final concentration of 10^−7–10^−3 M. After 46 h of incubation with the studied compounds, the cells were treated with the MTT reagent and incubation was continued for another two hours. MTT – formazan crystals were dissolved in 20% sodium dodecyl sulphate (SDS, Sigma-Aldrich) and 50% DMF (Sigma-Aldrich) at pH 4.7; following this, absorbance was read at 570 nm on a multifunctional Victor ELISA-plate reader (Perkin Elmer, Turku, Finland). The IC50 values, i.e., the concentration of the test compound required to reduce the cell survival fraction to 50% of controls, were calculated from concentration-response curves and used as a measure of the sensitivity of the cells to a given treatment. As a control, cultured cells were grown in the absence of drugs. The data points represent the means of at least five to ten repeats ± standard deviation (S.D.).

For data set [2], the system named is NALM-6 cells. The experiment in a line: MTT cytotoxicity assay, NALM-6. Particulars: Homo sapiens, NALM-6, 48 h, MTT, 46 h + 2 h incubation. The class given is cell-based, human. How it is done:
as §1, §2, §3

Data set [3] deals with COLO-205 cells. The experiment in a line: MTT cytotoxicity assay, COLO-205. The class given is cell-based, human. To be noted: Homo sapiens, COLO 205, 48 h, 46 h + 2 h incubation. How it is done:
as §1, §2, §3

Data set [4] is described as follows: Lipophilicity (logP) by RP-TLC. Particulars: RP-18 F254S TLC plates.
For data set [5], the system named is red blood cells (RBC membrane integrity). Kind of data set: Red blood cell lysis assay. To be noted: 2% RBC suspension, 37 °C, 1 h. Format: cell-based. From the text: All synthesized compounds with potential biological activity have to be tested for blood compatibility since xenobiotics will react with blood cells upon administration. In this case, biocompatibility refers to the quantification of cellular and plasma components of the blood. The measurement of the integrity of RBC membrane is considered a simple and reliable method for estimating hemocompatibility.
The studies on biological material were approved by the Bioethics Committee of the Medical University of Lodz, Poland (RNN/109/16/KE). The blood samples were obtained from healthy donors at the Blood Donation Centre in Lodz. The procedure for plasma preparation for erythrotoxicity studies was described previously. The influence of synthesized compounds as well as two reference compounds flavanone and chromanone on RBC membrane integrity was performed by lysis assay which was conducted according to our previous protocol. Briefly, 2% RBC suspension in 0.9% NaCl was incubated at 37 °C for one hour with the tested compounds at various concentrations corresponding to their activity towards cancer cell lines or 0.9% NaCl (control). The samples were centrifuged at 3000 rpm for 10 min and the absorbance of the supernatant was measured at 550 nm. The results are presented as percentage of haemolysis where a sample containing 10 μL of 2.0% v/v Triton X-100 was regarded as a positive control contributing to 100% of haemolysis. A sample containing saline solution represented spontaneous haemolysis of RBCs (control). The studies were performed on four biological samples obtained from different blood donors (n = 4). The results are presented as mean ± standard deviation (SD). The coefficient of variability for the method was counted: W = 9.51%, n = 5.

Data set [6] concerns erythrocytes. The experiment in a line: Red blood cell morphology (phase-contrast microscopy). The class given is cell-based. Particulars: 2% erythrocyte suspension, 37 °C, 1 h, phase contrast 400×. How it is done: Studies on erythrocyte morphology complement the erythrotoxicity studies because they provide information on potential immediate interactions of the tested compounds with the erythrocyte lipid bilayer, and the possibility of creating pathological forms of erythrocytes, which are not able to carry oxygen. The effects of the synthesized compounds, and the two reference compounds chromanone and flavanone, on the morphology of erythrocytes is shown in Figure 6. Briefly, 2% RBC suspension was incubated with 0.9% NaCl (control samples) or tested compounds at various concentrations corresponding to their activity towards cancer cell lines.
A 2% erythrocyte suspension was incubated at 37 °C for one hour with various concentrations of synthesized compounds. The morphology of the RBCs was examined by means of a phase contrast Opta-Tech inverted microscope, at 400× magnification, equipped with software (OptaView 7) for image analysis.

As for `O=C1/C(=C/c2ccccc2)COc2ccccc21` [Compound 7, (E)-3-benzylidene-chroman-4-one], the half-maximal inhibitory concentration (IC50) in data set [1] was 34.8 ± 2.87 µM; in data set [2], 6.83 ± 0.18 µM; in data set [3], 31 ± 1.4 µM. Further, in data set [4], the chromatographic logP was determined as 4.23. For the same molecule, the “effect on RBC hemolysis / erythrocyte membrane integrity (in words)” value in data set [5] is given as “no significant effects on RBC hemolysis were observed up to 35 µM”. For the same molecule, in data set [6], the “erythrocyte morphology (in words)” value is “primarily led to echinocytosis, however single anisocytes could also be detected”.
